Structures can show the parent of a compound that is named as a salt.
Biological target: T1, 5-HT4 receptor (Cavia porcellus, UniProt O70528)
T1 construct: Longitudinal muscle-myenteric plexus preparations, approximately 3 cm long, are obtained from the distal colon region; from tissue; host or cells: guinea-pig distal colon, longitudinal muscle-myenteric plexus preparation
Experiment: Guinea pig colon 5-HT4 receptor antagonist activity (longitudinal muscle-myenteric plexus, 5-HT evoked contraction)
Settings: -log concentration of antagonist which reduces the 5-HT evoked contraction by 50%; guinea-pig distal colon; methiothepin 10^-7 M and granisetron 10^-6 M present
Description: 5-HT4 RECEPTOR ANTAGONIST ACTIVITY
Male guinea-pigs, weighing 250-400 g are used. Longitudinal muscle-myenteric plexus preparations, approximately 3 cm long, are obtained from the distal colon region. These are suspended under a 0.5 g load in isolated tissue baths containing Krebs solution bubbled with 5% CO2 in O2 and maintained at 37° C. In all experiments, the Krebs solution also contains methiothepin 10^-7 M and granisetron 10^-6 M to block effects at 5-HT1, 5-HT2 and 5-HT3 receptors.
After construction of a simple concentration-response curve with 5-HT, using 30 s contact times and a 15 min dosing cycle, a concentration of 5-HT is selected so as to obtain a contraction of the muscle approximately 40-70% maximum (10^-9 M approx). The tissue is then alternately dosed every 15 min with this concentration of 5-HT and then with an approximately equi-effective concentration of the nicotine receptor stimulant, dimethylphenylpiperazinium (DMPP). After obtaining consistent responses to both 5-HT and DMPP, increasing concentrations of a putative 5-HT4 receptor antagonist are then added to the bathing solution. The effects of this compound are then determined as a percentage reduction of the contractions evoked by 5-HT or by DMPP. […] A compound which reduces the response to 5-HT but not to DMPP is believed to act as a 5-HT4 receptor antagonist.

T1 sequence (O70528 whole entry): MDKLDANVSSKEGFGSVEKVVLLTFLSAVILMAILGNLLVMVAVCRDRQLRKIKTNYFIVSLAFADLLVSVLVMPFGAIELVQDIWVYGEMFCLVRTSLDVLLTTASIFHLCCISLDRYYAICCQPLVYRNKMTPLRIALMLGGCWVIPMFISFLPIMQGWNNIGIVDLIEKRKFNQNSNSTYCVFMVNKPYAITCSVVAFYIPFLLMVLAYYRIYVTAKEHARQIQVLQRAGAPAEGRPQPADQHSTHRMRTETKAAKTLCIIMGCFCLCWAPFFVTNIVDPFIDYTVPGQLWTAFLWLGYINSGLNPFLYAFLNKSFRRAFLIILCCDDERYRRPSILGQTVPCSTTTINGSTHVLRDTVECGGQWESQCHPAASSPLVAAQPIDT

- IC50: 0.0631 nM
SMILES: Nc1c(Cl)cc(C(=O)OCC2CCN(CCCO)CC2)c2c1OCCO2 [Example E1, [1-(3Hydroxypropyl)-4-piperidinyl]methyl 8-amino-7-chloro-1,4-benzodioxan-5-carboxylate hydrochloride]
